In ChEMBL document CHEMBL5344406, “1,2,3-Triazole-containing hybrids with potential antibacterial activity against ESKAPE pathogens” (2022):
≈ marks a conversion by molar mass, not a printed value.

Key:
Type in all cases: functional
Staphylococcus aureus [1] = assay: Antibacterial activity against Staphylococcus aureus clinical isolate assessed as bacterial growth inhibition by disk diffusion method
Escherichia coli [2] = assay: Antibacterial activity against Escherichia coli clinical isolate assessed as bacterial growth inhibition by disk diffusion method
Klebsiella pneumoniae [3] = assay: Antibacterial activity against Klebsiella pneumoniae clinical isolate assessed as bacterial growth inhibition by disk diffusion method
Pseudomonas putida = assay: Antibacterial activity against Pseudomonas putida clinical isolate assessed as bacterial growth inhibition by disk diffusion method
Serratia marcescens = assay: Antibacterial activity against Serratia marcescens clinical isolate assessed as bacterial growth inhibition by disk diffusion method
Staphylococcus aureus [4] = assay: Antibacterial activity against methicillin-resistant Staphylococcus aureus ATCC 43300 infected in neutropenic mouse model of thigh infection assessed as reduction in bacterial load at 20 mg/kg, iv measured after 24 hrs by colony counting method
Pseudomonas aeruginosa [5] = assay: Antibacterial activity against Pseudomonas aeruginosa assessed as bacterial growth inhibition incubated for 24 hrs by spectrophotometry
Escherichia coli [6] = assay: Antibacterial activity against Escherichia coli assessed as bacterial growth inhibition incubated for 24 hrs by spectrophotometry
Staphylococcus aureus [7] = assay: Antibacterial activity against Staphylococcus aureus assessed as bacterial growth inhibition incubated for 24 hrs by spectrophotometry
Bacillus subtilis = assay: Antibacterial activity against Bacillus subtilis assessed as bacterial growth inhibition incubated for 24 hrs by spectrophotometry
Staphylococcus aureus [8] = assay: Antibacterial activity against Staphylococcus aureus assessed as bacterial growth inhibition by broth microdilution method
Escherichia coli [9] = assay: Antibacterial activity against Escherichia coli assessed as bacterial growth inhibition by broth microdilution method
Klebsiella pneumoniae [10] = assay: Antibacterial activity against Klebsiella pneumoniae assessed as bacterial growth inhibition by broth microdilution method
Staphylococcus aureus [11] = assay: Antibacterial activity against Staphylococcus aureus assessed as bacterial growth inhibition by CLSI based broth microdilution method
Escherichia coli [12] = assay: Antibacterial activity against Escherichia coli assessed as bacterial growth inhibition by CLSI based broth microdilution method
Pseudomonas aeruginosa [13] = assay: Antibacterial activity against Pseudomonas aeruginosa assessed as bacterial growth inhibition by CLSI based broth microdilution method
Escherichia coli [14] = assay: Antibacterial activity against Escherichia coli assessed as bacterial growth inhibition
Staphylococcus aureus [15] = assay: Antibacterial activity against methicillin-sensitive Staphylococcus aureus assessed as bacterial growth inhibition
[16] = test system: Staphylococcus epidermidis; assay: Antibacterial activity against methicillin-sensitive Staphylococcus epidermidis assessed as bacterial growth inhibition
Enterococcus faecalis = assay: Antibacterial activity against Enterococcus faecalis assessed as bacterial growth inhibition
Enterococcus faecium = assay: Antibacterial activity against Enterococcus faecium assessed as bacterial growth inhibition
Pseudomonas aeruginosa [17] = assay: Antibacterial activity against Pseudomonas aeruginosa assessed as bacterial growth inhibition
Enterobacter cloacae = assay: Antibacterial activity against Enterobacter cloacae assessed as bacterial growth inhibition
Klebsiella aerogenes = assay: Antibacterial activity against Enterobacter aerogenes assessed as bacterial growth inhibition
Providencia rettgeri = assay: Antibacterial activity against Providencia rettgeri assessed as bacterial growth inhibition
Proteus vulgaris = assay: Antibacterial activity against Proteus vulgaris assessed as bacterial growth inhibition
Klebsiella pneumoniae [18] = assay: Antibacterial activity against Klebsiella pneumoniae assessed as bacterial growth inhibition
Escherichia coli [19] = assay: Antibacterial activity against Escherichia coli producing extended spectrum beta-lactamases assessed as bacterial growth inhibition
Klebsiella pneumoniae [20] = assay: Antibacterial activity against Klebsiella pneumoniae producing extended spectrum beta-lactamases assessed as bacterial growth inhibition
Staphylococcus aureus [21] = assay: Antibacterial activity against Staphylococcus aureus ATCC 43300 assessed as bacterial growth inhibition measured for 5 to 20 mins by broth dilution method; conditions: time 5-20 min
Pseudomonas aeruginosa [22] = assay: Antibacterial activity against Pseudomonas aeruginosa ATCC 10145 assessed as bacterial growth inhibition measured for 5 to 20 mins by broth dilution method; conditions: time 5-20 min
Pseudomonas aeruginosa [23] = assay: Antibacterial activity against Pseudomonas aeruginosa assessed as bacterial growth inhibition by broth dilution method
Klebsiella pneumoniae [24] = assay: Antibacterial activity against Klebsiella pneumoniae assessed as bacterial growth inhibition by broth dilution method
Escherichia coli [25] = assay: Antibacterial activity against multidrug-resistant Escherichia coli assessed as bacterial growth inhibition incubated for 24 hrs by […] method

Cc1ccc2c(c1)c(=O)c1ccccc1n2Cc1cn(CC(=O)Nc2ccccc2C)nn1
MIC (Staphylococcus aureus [1]): 12.3 µg/mL (≈ 28.1 µM) | MIC (Escherichia coli [2]): 12.3 µg/mL (≈ 28.1 µM) | MIC (Klebsiella pneumoniae [3]): 12.3 µg/mL (≈ 28.1 µM) | MIC (Pseudomonas putida): 12.3 µg/mL (≈ 28.1 µM) | MIC (Serratia marcescens): 12.3 µg/mL (≈ 28.1 µM)

C=C[C@]1(C)C[C@@H](OC(=O)CSCCN(CC)CC)[C@]2(C)[C@H](C)CC[C@]3(CCC(=O)[C@H]32)[C@@H](C)[C@@H]1O [TIAMULIN]
Activity (Staphylococcus aureus [4]): -0.57 log10CFU/ml

Cc1c(C(=O)/C=C/c2ccc(Cl)cc2)nnn1-c1ccc(Cl)c(Cl)c1
MIC (Pseudomonas aeruginosa [5]): 1.3 µg/mL (≈ 3.31 µM) | MIC (Escherichia coli [6]): 1.3 µg/mL (≈ 3.31 µM) | MIC (Staphylococcus aureus [7]): 1.3 µg/mL (≈ 3.31 µM) | MIC (Bacillus subtilis): 1.3 µg/mL (≈ 3.31 µM)

Cc1ccc(NC(=O)Cn2cc(Cn3c4ccccc4c(=O)c4cc(C)ccc43)nn2)cc1
MIC (Staphylococcus aureus [1]): 12.3 µg/mL (≈ 28.1 µM) | MIC (Escherichia coli [2]): 12.3 µg/mL (≈ 28.1 µM) | MIC (Klebsiella pneumoniae [3]): 12.3 µg/mL (≈ 28.1 µM) | MIC (Pseudomonas putida): 12.3 µg/mL (≈ 28.1 µM) | MIC (Serratia marcescens): 12.3 µg/mL (≈ 28.1 µM)

COC(=O)[C@H](Cc1cn(Cc2cn(-c3ccccc3[N+](=O)[O-])nn2)c2ccccc12)NC(=O)[C@@H](C)c1ccc2cc(OC)ccc2c1
MIC (Staphylococcus aureus [8]): 25 µg/mL (≈ 39.5 µM) | MIC (Escherichia coli [9]): 25 µg/mL (≈ 39.5 µM) | MIC (Klebsiella pneumoniae [10]): 25 µg/mL (≈ 39.5 µM)

O=C(N/N=C/c1cn(-c2ccccc2)nc1-c1ccc(Cl)cc1)c1cccc(-n2cc(-c3ccccc3)nn2)c1
MIC (Staphylococcus aureus [11]): 4 µg/mL (≈ 7.35 µM) | MIC (Escherichia coli [12]): 4 µg/mL (≈ 7.35 µM) | MIC (Pseudomonas aeruginosa [13]): 4 µg/mL (≈ 7.35 µM)

CO/N=C1\C(=O)N(Cc2cn(CC(=O)N3CCC[C@@H]4CN(c5c(F)cc6c(=O)c(C(=O)O)cn(C7CC7)c6c5OC)C[C@@H]43)nn2)c2ccc(C)cc21
MIC (Escherichia coli [14]): ≤ 0.03 µg/mL | MIC (Staphylococcus aureus [15]): ≤ 0.03 µg/mL | MIC [16]: ≤ 0.03 µg/mL | MIC (Enterococcus faecalis): ≤ 0.03 µg/mL | MIC (Enterococcus faecium): ≤ 0.03 µg/mL | MIC (Pseudomonas aeruginosa [17]): ≤ 0.03 µg/mL | MIC (Enterobacter cloacae): ≤ 0.03 µg/mL | MIC (Klebsiella aerogenes): ≤ 0.03 µg/mL | MIC (Providencia rettgeri): ≤ 0.03 µg/mL | MIC (Proteus vulgaris): ≤ 0.03 µg/mL | MIC (Klebsiella pneumoniae [18]): ≤ 0.03 µg/mL | MIC (Escherichia coli [19]): ≤ 0.03 µg/mL | MIC (Klebsiella pneumoniae [20]): ≤ 0.03 µg/mL

C[C@H]1COc2c(N3CCN(C)CC3)c(F)cc3c(=O)c(C(=O)O)cn1c23 [LEVOFLOXACIN ANHYDROUS]
MIC (Pseudomonas aeruginosa [5]): 33.6 µg/mL (≈ 93 µM) | MIC (Escherichia coli [6]): 33.6 µg/mL (≈ 93 µM) | MIC (Staphylococcus aureus [7]): 33.6 µg/mL (≈ 93 µM) | MIC (Bacillus subtilis): 33.6 µg/mL (≈ 93 µM)

O=C(N/N=C/c1cn(-c2ccccc2)nc1-c1ccccc1)c1cccc(-n2cc(-c3ccccc3)nn2)c1
MIC (Staphylococcus aureus [11]): 4 µg/mL (≈ 7.85 µM) | MIC (Escherichia coli [12]): 4 µg/mL (≈ 7.85 µM) | MIC (Pseudomonas aeruginosa [13]): 4 µg/mL (≈ 7.85 µM)

COCCOCCOCCOC(=O)c1cccc(-n2cc(CO[C@@H]3O[C@H](COC(C)=O)[C@H](OC(C)=O)[C@H](OC(C)=O)[C@H]3OC(C)=O)nn2)c1
MIC (Staphylococcus aureus [21]): 5 µg/mL (≈ 7.19 µM) | MIC (Pseudomonas aeruginosa [22]): 5 µg/mL (≈ 7.19 µM)

CC1(C)S[C@@H]2[C@H](NC(=O)Cc3ccccc3)C(=O)N2[C@H]1C(=O)O [PENICILLIN G]
MIC (Pseudomonas aeruginosa [23]): 18.8 µg/mL (≈ 56.1 µM) | MIC (Klebsiella pneumoniae [24]): 9.37 µg/mL (≈ 28 µM)

Clc1cccc(Cn2cc(COc3ccc(-c4nc5ccccc5s4)cc3)nn2)c1
MIC (Escherichia coli [25]): 8.02 µg/mL (≈ 18.5 µM)
